Consider four compounds from patent US20230355506A1, “ACTIVE INGREDIENT COMPLEX FOR COSMETIC PREPARATIONS” (LA PRAIRIE GROUP AG, priority 2022, published 2023).

In the test the test system is collagen I A2. In words: ELISA for collagen1A2 in ECM isolated from cultured hypodermis explants after 10 days of treatment. It counts as cell-based, human. The conditions noted are these: additions (extract solvents/additives) alone. (An ELISA detects its analyte on a solid surface through an enzyme-linked reagent.)

Experimental: The hypodermis was prepared and weighed out into approximately 200 mg pieces. The tissue was cultured in a submersed state in defined and serum-free hypodermis tissue culture medium (CB-EM-HYP) in an actively humidified biomedical incubator (Memmert, Germany) at 37° C. and 5% CO2.
Overnight cultivation was followed by substitution with fresh tissue culture medium. Explants were cultivated either in the presence or absence of test samples.
Over a period of 10 days, the medium was replaced daily with freshly supplemented test samples or with normal media without test samples.
After 10 days of treatment, a portion of the tissue samples was processed for the extraction of ECM proteins.
Isolated ECM was subjected to a protein estimation in accordance with the BCA method (Bicinchoninic Acid) (Sigma Aldrich), and ELISAs (Biotechne) corresponding to the antigen collagen1A2 were performed according to the manufacturer's protocol using the same amounts of proteins as were estimated from the BCA assay. A sensitive filter-based microplate reader (Accuris, USA) was used to perform readout.
The following test samples were investigated: • A. Glycolic caviar extract containing approx. 6% fish egg material, 10% water and propylene glycol ad 100. […] Lipophilic caviar extract containing 40% fish egg material, 0.02% tocopherol, 1% by weight phenoxyethanol and triglycerides ad 100. This extract was obtained from an extraction with triglycerides and phenoxyethanol of a homogenizate from fish eggs of Acipenser baerii. […] The proportion of sodium mannose 6-phosphate is 2.5% by weight. The proportion of mannose is 2.5% by weight.

Turning to `O=C(O)[C@@H](O)[C@H](O)[C@H](O)[C@@H](O)C(=O)O` [galactaric acid], the “Increase in the expression of collagen I by the additions alone” value (from here on “Increase in the expression of collagen I”) is “do not show any increase”.

As to `CC(O)CO` (stereo not shown) [propylene glycol], the “Increase in the expression of collagen I” value is listed as “do not show any increase”.

Consider `OCC(O)CO` [glycerol], for which the “Increase in the expression of collagen I” value was “do not show any increase”.

Regarding `O` [water], the “Increase in the expression of collagen I” value is “do not show any increase”.
